According to ChEMBL document CHEMBL1133214, “Novel nikkomycin analogues: inhibitors of the fungal cell wall biosynthesis enzyme chitin synthase” (Bioorg Med Chem Lett, 2000):
In brackets after ≈: the same amount, converted by molar mass.

What was measured:
[1] = Inhibition of chitin synthase isolated from Candida Albicans.
Candida albicans = experiment: Percent inhibition rate of 100 ug/mL against chitin synthase isolated from Candida albicans.

Row | Structure (SMILES) | IC50 [1] [µg/mL] | Rate (Candida albicans) [%]
1 | C[C@@H]([C@H](N)C(=O)N[C@H](C(=O)O)[C@H]1O[C@@H](n2ccc(=O)[nH]c2=O)[C@H](O)C1O)[C@H](O)c1ccc(O)cn1 (single isomer, unassigned) [NIKKOMYCIN] | 0.393 (≈ 0.793 µM) | 
2 | N[C@@H](CSc1ccc(O)cc1)C(=O)N[C@H](C(=O)O)[C@H]1O[C@@H](n2ccc(=O)[nH]c2=O)[C@H](O)C1O (single isomer, unassigned) |  | 44
3 | CC(C)(SCc1ccc(O)cc1)[C@H](N)C(=O)N[C@H](C(=O)O)[C@H]1O[C@@H](n2ccc(=O)[nH]c2=O)[C@H](O)C1O (single isomer, unassigned) | 5.89 (≈ 11.2 µM) | 99
4 | N[C@@H](CSc1ccc(C(=O)O)cn1)C(=O)N[C@H](C(=O)O)[C@H]1O[C@@H](n2ccc(=O)[nH]c2=O)[C@H](O)C1O (single isomer, unassigned) | 52.5 (≈ 103 µM) | 64
5 | N[C@@H](CSc1ccc2ccccc2c1)C(=O)N[C@H](C(=O)O)[C@H]1O[C@@H](n2ccc(=O)[nH]c2=O)[C@H](O)C1O (single isomer, unassigned) |  | 40
6 | CC(C)(SCc1ccc2ccccc2c1)[C@H](N)C(=O)N[C@H](C(=O)O)[C@H]1O[C@@H](n2ccc(=O)[nH]c2=O)[C@H](O)C1O (single isomer, unassigned) | 1.42 (≈ 2.54 µM) | 94
7 | CC(C)=CCC/C(C)=C/CSC[C@H](N)C(=O)N[C@H](C(=O)O)[C@H]1O[C@@H](n2ccc(=O)[nH]c2=O)[C@H](O)C1O (single isomer, unassigned) |  | 22
8 | N[C@@H](CSCc1ccccc1)C(=O)N[C@H](C(=O)O)[C@H]1O[C@@H](n2ccc(=O)[nH]c2=O)[C@H](O)C1O (single isomer, unassigned) |  | 78
9 | CC(C)(SCc1cccc(O)c1)[C@H](N)C(=O)N[C@H](C(=O)O)[C@H]1O[C@@H](n2ccc(=O)[nH]c2=O)[C@H](O)C1O (single isomer, unassigned) | 4.91 (≈ 9.36 µM) | 100
10 | N[C@@H](CSc1ccccn1)C(=O)N[C@H](C(=O)O)[C@H]1O[C@@H](n2ccc(=O)[nH]c2=O)[C@H](O)C1O (single isomer, unassigned) |  | 48
11 | N[C@@H](Cc1cc2ccccc2c2ccccc12)C(=O)N[C@H](C(=O)O)[C@H]1O[C@@H](n2ccc(=O)[nH]c2=O)[C@H](O)C1O (single isomer, unassigned) | 0.31 (≈ 0.58 µM) | 99
12 | N[C@@H](CSc1ccc(O)cn1)C(=O)N[C@H](C(=O)O)[C@H]1O[C@@H](n2ccc(=O)[nH]c2=O)[C@H](O)C1O (single isomer, unassigned) | 36 (≈ 74.5 µM) | 73
13 | CC(C)(SCc1ccccc1)[C@H](N)C(=O)N[C@H](C(=O)O)[C@H]1O[C@@H](n2ccc(=O)[nH]c2=O)[C@H](O)C1O (single isomer, unassigned) | 9.83 (≈ 19.3 µM) | 97
14 | N[C@@H](CSCC1CCCCC1)C(=O)N[C@H](C(=O)O)[C@H]1O[C@@H](n2ccc(=O)[nH]c2=O)[C@H](O)C1O (single isomer, unassigned) |  | 67
15 | CCCCCCCCCCCCSC[C@H](N)C(=O)N[C@H](C(=O)O)[C@H]1O[C@@H](n2ccc(=O)[nH]c2=O)[C@H](O)C1O (single isomer, unassigned) |  | 64
16 | CC(C)(SCc1ccc(O)cn1)[C@H](N)C(=O)N[C@H](C(=O)O)[C@H]1O[C@@H](n2ccc(=O)[nH]c2=O)[C@H](O)C1O (single isomer, unassigned) |  | 58
17 | N[C@@H](Cc1cccc2ccccc12)C(=O)N[C@H](C(=O)O)[C@H]1O[C@@H](n2ccc(=O)[nH]c2=O)[C@H](O)C1O (single isomer, unassigned) | 4.69 (≈ 9.68 µM) | 99
18 | N[C@@H](Cc1ccc(O)cc1)C(=O)N[C@H](C(=O)O)[C@H]1O[C@@H](n2ccc(=O)[nH]c2=O)[C@H](O)C1O (single isomer, unassigned) | 4.83 (≈ 10.7 µM) | 99
19 | N[C@@H](Cc1ccc(O)cn1)C(=O)N[C@H](C(=O)O)[C@H]1O[C@@H](n2ccc(=O)[nH]c2=O)[C@H](O)C1O (single isomer, unassigned) |  | 34
20 | Nc1ccc(SC[C@H](N)C(=O)N[C@H](C(=O)O)[C@H]2O[C@@H](n3ccc(=O)[nH]c3=O)[C@H](O)C2O)nc1 (single isomer, unassigned) |  | 42
21 | CC(C)(SCc1ccccc1O)[C@H](N)C(=O)N[C@H](C(=O)O)[C@H]1O[C@@H](n2ccc(=O)[nH]c2=O)[C@H](O)C1O (single isomer, unassigned) | 13.8 (≈ 26.3 µM) | 88
22 | CC(=O)NCSC[C@H](N)C(=O)N[C@H](C(=O)O)[C@H]1O[C@@H](n2ccc(=O)[nH]c2=O)[C@H](O)C1O (single isomer, unassigned) |  | 65
23 | N[C@@H](Cc1cccnc1)C(=O)N[C@H](C(=O)O)[C@H]1O[C@@H](n2ccc(=O)[nH]c2=O)[C@H](O)C1O (single isomer, unassigned) | 19.8 (≈ 45.5 µM) | 82
24 | N[C@@H](Cc1ccc2ccccc2c1)C(=O)N[C@H](C(=O)O)[C@H]1O[C@@H](n2ccc(=O)[nH]c2=O)[C@H](O)C1O (single isomer, unassigned) | 6.43 (≈ 13.3 µM) | 96
